Target: T1, human renin (Homo sapiens, UniProt P00797)
T1 sequence (P00797 67-406): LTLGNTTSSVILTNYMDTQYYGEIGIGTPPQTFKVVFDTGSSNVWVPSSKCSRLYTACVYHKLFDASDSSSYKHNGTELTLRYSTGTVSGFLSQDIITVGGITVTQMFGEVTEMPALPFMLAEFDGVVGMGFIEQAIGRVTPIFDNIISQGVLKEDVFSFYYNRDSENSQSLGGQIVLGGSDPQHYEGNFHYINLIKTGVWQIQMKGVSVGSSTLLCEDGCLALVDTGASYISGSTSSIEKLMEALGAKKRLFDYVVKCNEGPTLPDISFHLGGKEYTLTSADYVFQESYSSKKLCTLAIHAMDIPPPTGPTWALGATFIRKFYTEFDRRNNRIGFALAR
Test: Determination of renin IC50 by tGFP FRET assay
Format: biochemical
Conditions: Human recombinant renin, tandem GFP substrate 650 nM, 60 min incubation with compound, pH 7.4, 11-point curve
How it was run: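 Human recombinant renin (final 50.4 μIU) preincubated 60 min with compound (5% DMSO final) in 50 mM HEPES, 1 mM EDTA, 1% PEG 8000, 1 mM DTT, 0.1% BSA, pH 7.4, then tandem-GFP substrate added at 650 nM final. FRET fluorescence read; IC50 from 11-point curves spanning 100 μM–1 pM.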

Compound	IC50
COc1ccccc1OCCCCOc1ccc(N2CCNC[C@@H]2COc2ccc3ccccc3c2)cc1 [Example 108, (2R)-1-{4-[4-(2-methoxyphenoxy)-butoxy]-phenyl}-2-(naphthalene-2-yloxymethyl)-piperazine]	1360 nM
COCCCN1CCCc2ccc(OC[C@H]3CNCC(=O)N3c3ccc(OCCCOCc4ccccc4OC)cc3)cc21 [Example 109, (6R)-1-{4-[3-(2-Methoxybenzyloxy)-propoxy]-phenyl}-6-[1-(3-methoxypropyl)-1,2,3,4-tetrahydroquinolin-7-yloxymethyl]-piperazin-2-one]	3.17 nM
COC(=O)CN1CCCc2ccc(OC[C@H]3CNCC(=O)N3c3ccc(OCCCOCc4ccccc4OC)cc3)cc21 [Example 110, {7-[(2R)-1-{4-[3-(2-Methoxybenzyloxy)-propoxy]-phenyl}-6-oxopiperazin-2-ylmethoxy]-3,4-dihydro-2H-quinolin-1-yl}-acetic acid methyl ester]	4.09 nM
COCCCN1C(=O)CCc2ccc(OC[C@H]3CNCC(=O)N3c3ccc(OCCCOCc4ccccc4OC)cc3)cc21 [Example 111, 7-([2R]-1-{4-[3-(2-Methoxybenzyloxy)-propoxy]-phenyl}-6-oxopiperazin-2-ylmethoxy)-1-(3-methoxypropyl)-3,4-dihydro-1H-quinolin-2-one]	3.91 nM
COCCCN1C(=O)CCc2ccc(OC[C@@H]3CNCC(=O)N3c3ccc(OCCCOCc4ccccc4OC)cc3)cc21 [Example 112, 7-([2S]-1-{4-[3-(2-Methoxybenzyloxy)-propoxy]-phenyl}-6-oxopiperazin-2-ylmethoxy)-1′-(3-methoxypropyl)-3,4-dihydro-1H-quinolin-2-one]	1.7 nM
COC(=O)Cn1ccc2cc(OC[C@@H]3CNCC(=O)N3c3ccc(OCCCOCc4ccccc4OC)cc3)ccc21 [Example 113, [5-([2S]-1-{4-[3-(2-Methoxybenzyloxy)-propoxy]-phenyl}-6-oxopiperazin-2-ylmethoxy)-indol-1-yl]-acetic acid methyl ester]	10 nM
COC(=O)CN1C(=O)CCc2ccc(OC[C@H]3CNCC(=O)N3c3ccc(OCCCOCc4ccccc4OC)cc3)cc21 [Example 116, [7-([2R]-1-{4-[3-(2-Methoxybenzyloxy)-propoxy]-phenyl}-6-oxopiperazin-2-ylmethoxy)-2-oxo-3,4-dihydro-2H-quinolin-1-yl]-acetic acid methyl ester]	4 nM
COC(=O)CN1C(=O)COc2ccc(OC[C@H]3CNCC(=O)N3c3ccc(OCCCOCc4ccccc4OC)cc3)cc21 [Example 118, [6-([2R]-1-{4-[3-(2-Methoxybenzyloxy)-propoxy]-phenyl}-6-oxo-piperazin-2-ylmethoxy)-3-oxo-2,3-dihydro-benzo[1,4]oxazin-4-yl]-acetic acid methyl ester]	6.83 nM
COC(=O)CCn1ccc2cc(OC[C@H]3CNCC(=O)N3c3ccc(OCCCOCc4ccccc4OC)cc3)ccc21 [Example 119, 3-[5-([2R]-1-{4-[3-(2-Methoxybenzyloxy)-propoxy]-phenyl}-6-oxopiperazin-2-ylmethoxy)-indol-1-yl]-propionic acid methyl ester]	1.62 nM
COc1ccccc1COCCCOc1ccc(N2C(=O)CNC[C@@H]2COc2ccc3c(ccn3CCNC(C)=O)c2)cc1 [Example 120, N-{2-[5-([2R]-1-{4-[3-(2-Methoxybenzyloxy)-propoxy]-phenyl}-6-oxopiperazin-2-ylmethoxy)-indol-1-yl]-ethyl}-acetamide]	4.66 nM
COC(=O)Cn1c(C)cc2cc(OC[C@H]3CNCC(=O)N3c3ccc(OCCCOCc4ccccc4OC)cc3)ccc21 [Example 121, [5-([2R]-1-{4-[3-(2-Methoxybenzyloxy)-propoxy]-phenyl}-6-oxopiperazin-2-ylmethoxy)-2-methyl-indol-1-yl]-acetic acid methyl ester]	6 nM
COC(=O)CCN1CCCc2ccc(OC[C@H]3CNCC(=O)N3c3ccc(OCCCOCc4ccccc4OC)cc3)cc21 [Example 122, 3-[7-([2R]-1-{4-[3-(2-Methoxybenzyloxy)-propoxy]-phenyl}-6-oxopiperazin-2-ylmethoxy)-3,4-dihydro-2H-quinolin-1-yl]-propionic acid methyl ester]	0.36 nM
CCC(=O)OCCN1CCCc2ccc(OC[C@H]3CNCC(=O)N3c3ccc(OCCCOCc4ccccc4OC)cc3)cc21 [Example 123, Propionic acid 2-[7-([2R]-1-{4-[3-(2-methoxybenzyloxy)-propoxy]-phenyl}-6-oxopiperazin-2-ylmethoxy)-3,4-dihydro-2H-quinolin-1-yl]-ethyl ester]	9 nM
COc1ccccc1COCCCOc1ccc(N2C(=O)CNC[C@@H]2COc2ccc3c(c2)N(CCNC(C)=O)CCC3)cc1 [Example 124, N-{2-[7-([2R]-1-{4-[3-(2-Methoxybenzyloxy)-propoxy]-phenyl}-6-oxopiperazin-2-ylmethoxy)-3,4-dihydro-2H-quinolin-1-yl]-ethyl}-acetamide]	0.35 nM
COc1ccccc1COCCCOc1ccc(N2CCNC[C@@H]2COc2ccc3c(c2)N(CCNC(C)=O)CCC3)cc1 [Example 125, N-{2-[7-([2R]-1-{4-[3-(2-Methoxybenzyloxy)-propoxy]-phenyl}-piperazin-2-ylmethoxy)-3,4-dihydro-2H-quinolin-1-yl]-ethyl}-acetamide]	0.53 nM
CC(=O)NCCN1CCCc2ccc(OC[C@H]3CNCC(=O)N3c3ccc(OCCCOCc4ccccc4F)cc3)cc21 [Example 126, N-{2-[7-([2R]-1-{4-[3-(2-Fluorobenzyloxy)-propoxy]-phenyl}-6-oxopiperazin-2-ylmethoxy)-3,4-dihydro-2H-quinolin-1-yl]-ethyl}-acetamide]	5 nM
COCCCN1C(=O)COc2ccc(SC[C@H]3CNCC(=O)N3c3ccc(OCCCOCc4ccccc4OC)cc3)cc21 [Example 128, 6-([2R]-1-{4-[3-(2-Methoxybenzyloxy)-propoxy]-phenyl}-6-oxo-piperazin-2-ylmethylsulfanyl)-4-(3-methoxypropyl)-4H-benzo[1,4]oxazin-3-one]	0.18 nM
CCOC(=O)CN1C(=O)COc2ccc(SC[C@H]3CNCC(=O)N3c3ccc(OCCCOCc4ccccc4OC)cc3)cc21 [Example 129, [6-([2R]-1-{4-[3-(2-Methoxybenzyloxy)-propoxy]-phenyl}-6-oxo-piperazin-2-ylmethylsulfanyl)-3-oxo-2,3-dihydro-benzo[1,4]oxazin-4-yl]-acetic acid ethyl ester]	0.17 nM
CCOC(=O)Cn1ccc2ccc(OC[C@H]3CNCC(=O)N3c3ccc(OCCCOCc4ccccc4OC)cc3)cc21 [Example 132, [6-([2R]-1-{4-[3-(2-Methoxybenzyloxy)-propoxy]-phenyl}-6-oxo-piperazin-2-ylmethoxy)-indol-1-yl]-acetic acid ethyl ester]	6 nM
COC(=O)CCN1CCc2ccc(OC[C@H]3CNCC(=O)N3c3ccc(OCCCOCc4ccccc4OC)cc3)cc21 [Example 133, 3-[6-([2R]-1-{4-[3-(2-Methoxybenzyloxy)-propoxy]-phenyl}-6-oxo-piperazin-2-ylmethoxy)-2,3-dihydro-indol-1-yl]-propionic acid methyl ester]	9.59 nM

Reference: patent US20040214832A1, “Piperazine derivative renin inhibitors” (priority 2003, published 2004)
